Test results: patent US20230233453A1, “SUXAMETHONIUM COMPOSITION AND PREFILLED SYRINGE THEREOF” (LABORATOIRE AGUETTANT, priority 2020, published 2023)

How the values were obtained:
[1] = Sensitivity of suxamethonium to oxidizing conditions; format: physicochemical
[2] = Degradation of suxamethonium depending on pH; format: physicochemical; details: pH 5.0 vs pH 3.5

With `C[N+](C)(C)CCOC(=O)CCC(=O)OCC[N+](C)(C)C` [suxamethonium] the “sensitivity to oxidizing conditions” value [1] was “not sensitive to oxidizing conditions” and the “degradation depending on pH” value [2] was “faster at pH 5.0 than at pH 3.5”.
